Consider two compounds from US6667414B2, “Use of propargyl glycine amino propargyl diol compounds for treatment of congestive heart failure” (Pharmacia Corporation, priority 1991, dated 2003).

One assay has as its target T1, human renin (Homo sapiens, UniProt P00797).
T1 construct: purchased National Institute for Biological Standards, London
T1 sequence (P00797 67-406): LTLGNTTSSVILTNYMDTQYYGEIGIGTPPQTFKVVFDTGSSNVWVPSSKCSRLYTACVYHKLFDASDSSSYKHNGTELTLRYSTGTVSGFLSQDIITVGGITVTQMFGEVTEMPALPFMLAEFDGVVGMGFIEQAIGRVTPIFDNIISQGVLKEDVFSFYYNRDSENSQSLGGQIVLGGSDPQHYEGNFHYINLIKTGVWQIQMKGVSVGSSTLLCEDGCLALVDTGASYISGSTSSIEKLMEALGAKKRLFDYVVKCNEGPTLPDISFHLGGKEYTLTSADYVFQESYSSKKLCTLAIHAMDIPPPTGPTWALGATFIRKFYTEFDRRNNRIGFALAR
Nature of the assay: Human renin inhibition in vitro. It is filed as biochemical. The conditions noted are these: conversion of angiotensinogen to angiotensin I, 2 h at 37° C., pH 7.4. As to the method: Compounds of Formula I were evaluated as inhibitors of human renin in an in vitro assay, as follows: This human renin inhibition test has been previously described in detail [Papaioannou et al., Clinical and Experimental Hypertension, A7(9), 1243-1257 (1985)-]. Human renin was obtained from the National Institute for Biological Standards, London. An incubation mixture was prepared containing the following components: in a total volume of 0.25 mL: 100 mM Tris-acetate buffer at pH 7.4, 25×10^−6 Goldblatt units of renin, 0.05 mL of plasma from human volunteers taking oral contraceptives, 6.0 mM Na-EDTA, 2.4 mM phenylmethyl sulfonyl fluoride, 1.5 mM 8-hydroxyquinoline, 0.4 mg/mL bovine serum albumin (BSA), and 0.024 mg/mL neomycin sulfate. This mixture was incubated for two hours at 37° C. in the presence or absence of renin inhibitors. The produced angiotensin I was determined by radioimmunoassay (New England Nuclear kit). Test compounds to be assayed were dissolved in DMSO and diluted with 100 mM Tris-acetate buffer at pH 7.4 containing 0.5% BSA to the appropriate concentration. The final concentration of organic solvent in the reaction mixture was less than 1%. Control incubations at 37° C. were used to correct for effects of organic solvent on renin activity.

For the next assay, the system named is hog renin. The conditions noted are these: after the injection of hog renin into nephrectomized rats; cited from earlier work.

pIC50: −log10 of the molar value. Where a SMILES comes first, the peptide text is derived from it. [ ]: non-standard residue; d: D form. The star is where a group is joined. Sta = CC(C)C[C@H](N)[C@@H](O)CC(=O)O; Isovaleryl = CC(C)CC(=O)*

In the case of `C#CC[C@H](NC(=O)[C@@H](CC(=O)N(C)CCN(C)C)Cc1ccccc1)C(=O)N[C@@H](CC1CCCCC1)[C@@H](O)[C@@H](O)CC#C` (relative stereo) [Example 1, N1-[1R*-[[[1S,1R*-(cyclohexylmethyl)-2S*,3R*-dihydroxyhexynyl]amino]carbonyl]-3-butynyl]-N-4-[2-(dimethylamino)ethyl]-N-4-methyl-2S*-(phenylmethyl)Butanediamide], at human renin, the negative logarithm of the IC50 (pIC50) (in general, the negative decadic logarithm of the IC50, by convention in mol/L) is 7.47. `CC(C)CC(=O)N[C@H](C(=O)N[C@H](C(=O)N[C@@H](CC(C)C)[C@@H](O)CC(=O)N[C@@H](C)C(=O)N[C@@H](CC(C)C)[C@@H](O)CC(=O)O)C(C)C)C(C)C` [pepstatin] (Isovaleryl-VV[Sta]A[Sta]-OH): in the assay with hog renin, the “blood pressure in vivo” value is listed as “reduce blood pressure”.
